These are literature values, as cited in patent US20180243418A1, “SYSTEMS AND METHODS FOR TARGETED CANCER THERAPIES” (American University of Sharjah, priority 2017, published 2018).

The structures appear in SMILES notation.

Data set [1] relates to human and mice melanoma cells. The settings on record: melanoma cells treated for about 8 hours.
Data set [2] has as its system VX2 carcinoma cells. The settings on record: rabbits implanted with VX2 carcinoma cells, intravenous.

For the compound `COc1cccc2c1C(=O)c1c(O)c3c(c(O)c1C2=O)C[C@@](O)(C(=O)CO)C[C@@H]3O[C@H]1C[C@H](N)[C@H](O)[C@H](C)O1` [free Dox, doxorubicin], in data set [1], the “accumulation in the nucleus, of the initial amount” value is given as “about 26%” and the “initial concentration detected in the cell cytoplasm” value is “about 0.5%”. Moreover, in data set [2], the “concentration of Dox in tumors” value was “about 4.0±1.0 μg Dox/g tissues”.
